Read-outs that look alike come from different tables or passages of the source.

Data set [1] is described as follows: Body weight of drug-treated mice. As to conditions: BALB/c mice, single i.v. dose. It counts as in vivo. Here is the method:
Mice were randomly selected and treated with cisplatin (5 mg kg^−1, 10 mg kg^−1 or 20 mg kg^−1 body weight, i.p. injection), gentamicin (100 mg kg^−1 day^−1, i.p. injection) or diatrizoate (1000 mg kg^−1 body weight, i.v injection, water deprivation for 24 h before treatment). The control groups were treated with saline (0.2 ml) or NAC (400 mg kg^−1 body weight, i.v injection) 30 min prior to cisplatin administration^50. Body weights of all the mice were recorded during treatment. After drug administration, the weight of mice and signs of discomfort were monitored on a daily basis during the entire experiments (FIG. 46). Imaging, blood and urine sampling were conducted at different timepoints post-treatment of drug. At the end, mice were euthanized and major organs were placed into 4% paraformaldehyde for histological examination.
For the doxorubicin model, dose-finding studies were first carried out to define an optimal dose of 10 mg kg^−1 body weight of doxorubicin. […] The corresponding MRP (40 mg kg^−1) was systematically injected through the tail vein at t=0, 2 d, 5 d, and 8 d post-treatment of DOX, and fluorescence images were acquired. […] Fluorescence images of living mice and urine samples were acquired for 0.1 s with excitation at 675±20 nm, and emission at 720±20 nm. Fluorescence images were analysed by ROI analysis using the Living Image 4.0 Software.

For data set [2] the following is noted: cited from earlier work.
The conditions of data set [3]: in DMSO; cited from earlier work.
Data set [4] is described as follows: Determination of GFR by FITC-inulin method in drug-treated mice. Format: in vivo. Here is the method: FITC-inulin (150 mg) was dissolved in 0.9% NaCl (3 ml) at 75° C. and dialysed in 0.9% NaCl (1000 ml) at room temperature for 24 h. Dialysed FITC-inulin (3.74 μl g^−1 […]), or at t=24, 36, 48, 96, or 144 h post-treatment of gentamicin (100 mg kg^−1 day^−1 body weight), or at t=2, 8, 16, 24, or 48 h post-treatment of diatrizoate (1000 mg kg^−1 body weight), or saline (0.2 ml) treated mice. Blood (approximately 20 μl) was collected via saphenous vein at 3, 7, 10, 15, 35, 55, and 75 min post-injection of FITC-inulin, and then centrifuged for 20 min at 3500 r.p.m. Serum sample (10 μl) was diluted with HEPES buffer (40 μl, 500 mM, pH 7.4) and fluorescence was measured using spectramax with excitation at 485 nm and emission at 538 nm. Serum fluorescence data were presented as a two-component exponential decay curve using nonlinear regression (3 mice were analysed for each sample). GFR was calculated according to the equation (Z. Qi, et al., Am. J. Physiol. Renal. Physiol. 2004, 286, F590-596): […], where I is the amount of FITC-inulin delivered by the bolus injection, A and B are the y-intercept values of the two decay rates, and α and β are the decay constants for the distribution and elimination phases, respectively.
FITC-inulin (150 mg) was dissolved in 0.9% NaCl (3 ml), heated at 75° C. and dialysed in 0.9% NaCl (1000 ml) at room temperature for 24 h. Dialysed FITC-inulin (3.74 μl g^−1 body weight) was i.v. injected into living mice at =2, 8, 16, 24, or 48 h post-treatment of diatrizoate (1 g kg^−1 body weight), or PBS (0.2 ml) treated mice, or NAC/DTZ co-treated mice. Blood (approximately 20 μl) was collected via tail vein at 3, 7, 10, 15, 35, 55, and 75 min post-injection of FITC-inulin, and then centrifuged for 15 min at 4500 r.p.m. Serum sample (10 μl) was diluted with PBS buffer (40 μl, 10 mM, pH 7.4) and fluorescence was measured using spectramax with excitation at 485 nm and emission at 538 nm. Serum fluorescence data were presented as a two-component exponential decay curve using nonlinear regression (3 mice were analysed for each sample). GFR was calculated according to the equation: […], where 1 is the amount of FITC-inulin delivered by the bolus injection, A and B are the y-intercept values of the two decay rates, and α and β are the decay constants for the distribution and elimination phases, respectively.

A short description of data set [5]: Commercial assays of serum and urinary kidney injury biomarkers in drug-treated mice. It counts as in vivo. Here is the method: Urine was collected using metabolic cages from drug-treated mice at different timepoints post-treatment of drug. The collected urine samples were centrifuged at 4500 r.p.m. for 8 min and filtered by 0.22 μm syringe filter. MRPs1-3 solutions (30 μM) in PBS buffer (10 mM, pH 7.4) were incubated with the urine (100 μl) at 37° C., followed by fluorescence measurements on fluorescence spectrophotometer after 2 h incubation (9 mice were analysed for each sample). Urinary TFF3, osteopontin, NGAL, β2-Microglobulin, KIM-1, clusterin levels were quantified using ELISA kits according to the manufacturer's protocol (6 mice were analysed for each sample).
Blood was collected from the tail vein in living NCr nude mice under isoflurane anesthesia at t=8, 12, 16, 24, or 48 h post-treatment of cisplatin (20 mg kg^−1 body weight), or at t=24, 48, 72, 96, or 144 h post-treatment of gentamicin (100 mg kg^−1 day^−1 body weight), or at t=2, 8, 16, 24, or 48 h post-treatment of diatrizoate (1000 mg kg^−1 body weight), or saline (0.2 ml) treated mice. The collected blood samples were centrifuged for 20 min at 3500 r.p.m. Serum creatinine, BUN and cystatin C were determined using commercial kits according to the manufacturer's protocol (5 mice were analysed for each sample).
Blood was collected from the tail vein in living mice under isoflurane anesthesia at t=2, 8, 16, 24 or 48 h post-treatment of diatrizoate (1 g kg^−1 body weight), or PBS treated mice, or NAC/DTZ co-treated mice. The collected blood samples were centrifuged for 15 min at 4500 r.p.m. Serum creatinine and BUN were determined using commercial kits according to the manufacturer's protocol (3 mice were analysed for each sample).

[6] abbreviates: at first significant timepoint, initial studies.
[7] abbreviates: at first significant timepoint, subsequent studies.

In the case of `COc1cccc2c1C(=O)c1c(O)c3c(c(O)c1C2=O)C[C@@](O)(C(=O)CO)C[C@@H]3O[C@H]1C[C@H](N)[C@H](O)[C@H](C)O1` [DOX, doxorubicin], in data set [1], the “mean body weight gain by day 16” value is 3% and the “mean body weight loss by day 8” value is listed as “approximately 6%”.

Consider `CNC(=O)CN(CCN(CCN(CC(=O)[O-])CC(=O)NC)CC(=O)[O-])CC(=O)[O-].[Gd+3]` [Gd-DTPA-BMA], for which the Renal clearance efficiency in data set [2] (in 24 h, S.D Rats) was 95% in 24 h.

Turning to `CC1(C)C(/C=C/C=C/C=C/C=C2\N(CCCCS(=O)(=O)[O-])c3ccc4ccccc4c3C2(C)C)=[N+](CCCCS(=O)(=O)[O-])c2ccc3ccccc3c21.[Na+]` [ICG], the “fluorescence quantum yield (ϕ) of standard” value in data set [3] is recorded as 13%.

As to `CC(=O)N(CC(O)CO)c1c(I)c(C(=O)NCC(O)CO)c(I)c(C(=O)NCC(O)CO)c1I` (stereo not drawn) [Iohexol], the Renal clearance efficiency in data set [2] (in 4 h, S.D rats) was 59.7% in 4 h.

For `CNC(=O)c1c(I)c(NC(C)=O)c(I)c(C(=O)O)c1I` [Iothalamate], the Renal clearance efficiency in data set [2] (in 24 h, S.D rat) is 93.5% ID in 24 h.

Consider `N.N.[Cl][Pt][Cl]` [cisplatin], for which the “decrease in GFR at timepoint of sCr/BUN increase” value (“decrease … of sCr/BUN increase” for short) in data set [4] (mouse, in vivo) is around 50%. In data set [5] (mouse, in vivo), the “time of first statistically significant change of urinary NGAL and trefoil factor-3” value is given as 48 h; the “time of first statistically significant increase of urinary KIM-1 and clusterin” value came to 24 h; the “time of increase of serum Cystatin C” value was 48 h; the “time of statistically significant change of urinary osteopontin” value stood at 72 h. For the same molecule, in data set [5] (mouse, in vivo), the “time of statistically significant change of urinary β2-microglobulin” value was 72 h; the “time of statistically significant increase of sCr and BUN after treatment” value was 72 h; the “urinary KIM-1 increase” value is given as 1.9 fold; the “urinary NGAL change” value came out at 2.7 fold. Moreover, in data set [5] (mouse, in vivo), the “urinary NGAL change, alternative value” turned out to be 2.72 fold; the urinary clusterin increase is 4.1 fold; the urinary osteopontin change amounted to 2.3 fold; the “urinary trefoil factor-3 change” value worked out at 0.4 fold. In data set [5] (mouse, in vivo), the “urinary β2-microglobulin change” value came to 3.9 fold.

With `CC(=O)Nc1c(I)c(NC(C)=O)c(I)c(C(=O)O)c1I` [diatrizoate], in data set [4] (mouse, in vivo), the “decrease in GFR at 24 h post-treatment” value was around 40%, the “decrease in GFR at 48 h post-treatment” value was around 60% and the “decrease … of sCr/BUN increase” value is around 50%. Moreover, in data set [5] (mouse, in vivo), the “BUN relative to control groups” value was found to be 1.8 fold; the “sCr relative to control groups” value is given as 1.7 fold; the “time of first statistically significant change of urinary NGAL and trefoil factor-3” value was determined as 24 h; the “time of first statistically significant increase of urinary KIM-1 and clusterin” value came out at 24 h. In data set [5] (mouse, in vivo), the “time of statistically significant change of urinary osteopontin” value is given as 24 h; the “time of statistically significant change of urinary β2-microglobulin” value turned out to be 48 h; the “time of statistically significant increase of sCr and BUN after treatment” value is listed as 24 h; the “urinary KIM-1 increase” value stood at 3.7 fold. In data set [5] (mouse, in vivo), the “urinary NGAL change” value came out at 2.3 fold; the “urinary NGAL change, alternative value” was found to be 2.05 fold; the urinary clusterin increase stood at 3.0 fold; the urinary osteopontin change is recorded as 2.3 fold. Also, in data set [5] (mouse, in vivo), the “urinary trefoil factor-3 change” value came out at 0.5 fold and the “urinary β2-microglobulin change” value is 3.6 fold.

For the molecule gentamicin, the “decrease … of sCr/BUN increase” value in data set [4] (72 h cisplatin, 144 h gentamicin, 24 h diatrizoate) was around 50%. Besides, in data set [5] (at first significant timepoint), the “urinary KIM-1 increase” value came to 2.2 fold; the “urinary NGAL change” value was found to be 2.0 fold; the “urinary NGAL change, alternative value” was determined as 1.98 fold; the urinary clusterin increase worked out at 3.5 fold. For the same molecule, in data set [5] (at first significant timepoint), the urinary osteopontin change turned out to be 2.3 fold, the “urinary trefoil factor-3 change” value is 0.3 fold and the “urinary β2-microglobulin change” value amounted to 3.2 fold. In data set [5] (setting [6]), the BUN increase is 2.23 fold and the sCr increase worked out at 2.82 fold. For the same molecule, in data set [5] (setting [7]), the BUN increase came to 2.4 fold and the sCr increase is 2.9 fold. Further, in data set [5] (mouse, in vivo), the “time of first statistically significant change of urinary NGAL and trefoil factor-3” value is on record as 96 h; the “time of first statistically significant increase of urinary KIM-1 and clusterin” value was found to be 72 h; the “time of statistically significant change of urinary osteopontin” value was determined as 144 h; the “time of statistically significant change of urinary β2-microglobulin” value was found to be 144 h. Further, in data set [5] (nephrotoxic dose, mice), the “time of statistically significant increase of sCr and BUN after treatment” value is reported as 144 h.

Values taken from patent US12296027B2, “Molecular renal probes for detecting acute kidney injury” (Nanyang Technological University, priority 2019, dated 2025).
